According to ChEMBL document CHEMBL1201862, “PubChem BioAssay data set” (2004):
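Assay format: 96-well plates, 48-hour exposure. Here, GI50 denotes the concentration required for 50% inhibition of growth.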 Active and inactive are the calls of the source. Cut-off read from the data, not from the text of the source: active = GI50 up to about 1.1 µM and inactive = higher.

Experiments:
Test in all cases: growth of human tumour cells (NCI), 48 h
ACHN = test system: ACHN
SF-268 = test system: SF-268
TK-10 = test system: TK-10
MDA-MB-231 = test system: MDA-MB-231
HCT-15 = test system: HCT-15
RPMI-8226 = test system: RPMI-8226
SW-620 = test system: SW-620
SNB-19 = test system: SNB-19
K562 = test system: K562
HT-29 = test system: HT-29
IGROV-1 = test system: IGROV-1
A549 = test system: A549
SF-295 = test system: SF-295
MCF7 = test system: MCF7
SK-MEL-5 = test system: SK-MEL-5
HOP-62 = test system: HOP-62
NCI/ADR-RES = test system: NCI/ADR-RES
HCC 2998 = test system: HCC 2998

Measured: GI50

CCn1c(-c2c(Cl)cc(O)cc2Cl)cc2c(Cl)cc(O)cc21
3.48 µM: HCT-15
inactive: ACHN 4.66 µM | SF-268 2.88 µM | TK-10 13.1 µM | MDA-MB-231 5.9 µM | RPMI-8226 5.81 µM | SW-620 5.69 µM | SNB-19 8.47 µM | K562 3.41 µM | HT-29 1.58 µM | IGROV-1 3.21 µM | A549 4.42 µM | SF-295 4.05 µM | MCF7 3.71 µM | SK-MEL-5 3.21 µM | HOP-62 6.25 µM | NCI/ADR-RES 5.13 µM

C[n+]1ccc2/c(=C\C#N)c3ccccc3n21
> 100 µM: HCT-15
inactive: ACHN 39.2 µM | SF-268 32.2 µM | TK-10 22 µM | HCC 2998 19 µM | RPMI-8226 11.8 µM | SW-620 35.1 µM | SNB-19 4.27 µM | K562 61.2 µM | HT-29 22.9 µM | IGROV-1 23.9 µM | A549 19.1 µM | SF-295 33.7 µM | MCF7 20.5 µM | SK-MEL-5 16.7 µM | HOP-62 30.7 µM | NCI/ADR-RES > 100 µM

CC(C)CNC(=O)Cn1c(-c2ccccc2)cc2ccccc21
> 100 µM: HCT-15
inactive: ACHN > 100 µM | SF-268 > 100 µM | TK-10 > 100 µM | HCC 2998 > 100 µM | RPMI-8226 > 100 µM | SW-620 > 100 µM | SNB-19 > 100 µM | K562 > 100 µM | HT-29 > 100 µM | IGROV-1 > 100 µM | A549 > 100 µM | SF-295 54.3 µM | MCF7 > 100 µM | SK-MEL-5 > 100 µM | HOP-62 > 100 µM | NCI/ADR-RES > 100 µM

COc1ccc(/C=N/N2C(=O)c3c(N)c(C#N)c(-c4ccccc4)c(-c4ccccc4)c3C2=O)cc1
inactive: ACHN 44.7 µM | SF-268 > 100 µM | TK-10 42.4 µM | HCC 2998 > 100 µM | MDA-MB-231 > 100 µM | RPMI-8226 > 100 µM | SW-620 > 100 µM | SNB-19 76.9 µM | K562 > 100 µM | IGROV-1 > 100 µM | A549 > 100 µM | SF-295 70.8 µM | MCF7 > 100 µM | SK-MEL-5 > 100 µM | NCI/ADR-RES > 100 µM
> 100 µM: HCT-15

Cc1ccc(S(=O)(=O)NC(=O)NC(Cc2ccc(O)c(O)c2)C(=O)O)cc1 (stereo not given)
active: SF-268 0.745 µM
inactive: ACHN > 100 µM | TK-10 > 100 µM | MDA-MB-231 > 100 µM | RPMI-8226 55.7 µM | SW-620 24.9 µM | SNB-19 > 100 µM | K562 37.1 µM | HT-29 > 100 µM | IGROV-1 > 100 µM | A549 > 100 µM | SF-295 > 100 µM | MCF7 > 100 µM | SK-MEL-5 > 100 µM | HOP-62 > 100 µM | NCI/ADR-RES > 100 µM
> 100 µM: HCT-15

COc1cc(OC)c2c(O)c(S(=O)(=O)c3ccc(C)cc3)c(=O)oc2c1
inactive: ACHN > 100 µM | SF-268 > 100 µM | TK-10 > 100 µM | HCC 2998 > 100 µM | MDA-MB-231 > 100 µM | RPMI-8226 76.7 µM | SW-620 > 100 µM | SNB-19 93.3 µM | K562 69.5 µM | HT-29 > 100 µM | IGROV-1 > 100 µM | A549 > 100 µM | SF-295 > 100 µM | MCF7 > 100 µM | SK-MEL-5 > 100 µM | NCI/ADR-RES > 100 µM
> 100 µM: HCT-15

COc1cc(OC)c(-n2[nH]c(=O)n(C)c2=O)c(OC)c1
inactive: SF-268 > 100 µM | TK-10 > 100 µM | HCC 2998 > 100 µM | MDA-MB-231 > 100 µM | RPMI-8226 > 100 µM | SW-620 > 100 µM | SNB-19 > 100 µM | K562 > 100 µM | HT-29 > 100 µM | IGROV-1 > 100 µM | A549 > 100 µM | MCF7 > 100 µM | NCI/ADR-RES > 100 µM
> 100 µM: HCT-15

CC(Cn1c2c(c3cc(O)ccc31)CCc1ccc(O)cc1-2)N(C)C (stereo not given)
inactive: ACHN 15.8 µM | SF-268 20.7 µM | TK-10 18.7 µM | MDA-MB-231 26 µM | RPMI-8226 38.3 µM | SW-620 20.3 µM | SNB-19 17.8 µM | K562 34.5 µM | HT-29 18.2 µM | IGROV-1 12.8 µM | SF-295 18.2 µM | MCF7 19.9 µM | HOP-62 15.6 µM | NCI/ADR-RES 20.2 µM
13.9 µM: HCT-15

C[C@H]1C[C@H]2[C@@H]3C(C)(C)O[C@]4(O)C(=O)[C@]5(O)[C@@H](C)CC[C@H]1[C@]25C(=O)[C@]34C
inactive: ACHN 27.3 µM | SF-268 45.7 µM | MDA-MB-231 > 100 µM | RPMI-8226 18.1 µM | SW-620 79.6 µM | SNB-19 > 100 µM | K562 25.5 µM | HT-29 26 µM | IGROV-1 64 µM | A549 41.6 µM | SF-295 30.1 µM | MCF7 41.3 µM | SK-MEL-5 28.4 µM | HOP-62 47.1 µM | NCI/ADR-RES 39.3 µM
33.9 µM: HCT-15

CCN(CC)c1ccc(/C=C/C2=NN(c3cccc(S(=O)(=O)O)c3)C3(C2)SCC(=O)N3c2nc3ccccc3s2)cc1 (stereo not given)
45.6 µM: HCT-15
inactive: ACHN 25.8 µM | SF-268 40.5 µM | TK-10 23.1 µM | HCC 2998 35.2 µM | MDA-MB-231 55.1 µM | RPMI-8226 17.9 µM | SW-620 42.9 µM | SNB-19 39.8 µM | K562 17.7 µM | HT-29 36.6 µM | IGROV-1 41.7 µM | A549 32.7 µM | MCF7 25.6 µM | SK-MEL-5 21.1 µM | NCI/ADR-RES > 100 µM

O=[N+]([O-])c1ccc(CSC2=C(c3ccc(Cl)cc3)S/C(=C3\SC(SCc4ccc([N+](=O)[O-])cc4)=C(c4ccc(Cl)cc4)S3)S2)cc1
inactive: ACHN > 100 µM | SF-268 > 100 µM | TK-10 > 100 µM | HCC 2998 > 100 µM | MDA-MB-231 > 100 µM | SW-620 > 100 µM | SNB-19 > 100 µM | K562 > 100 µM | HT-29 > 100 µM | IGROV-1 > 100 µM | A549 > 100 µM | SF-295 > 100 µM | MCF7 > 100 µM | SK-MEL-5 > 100 µM | HOP-62 > 100 µM | NCI/ADR-RES > 100 µM
> 100 µM: HCT-15

Cc1ncc([N+](=O)[O-])n1CCNCCCCn1ccnc1[N+](=O)[O-]
inactive: ACHN > 100 µM | SF-268 > 100 µM | TK-10 > 100 µM | MDA-MB-231 > 100 µM | RPMI-8226 > 100 µM | SW-620 > 100 µM | K562 > 100 µM | HT-29 > 100 µM | IGROV-1 > 100 µM | A549 > 100 µM | SF-295 > 100 µM | MCF7 > 100 µM | SK-MEL-5 > 100 µM | HOP-62 > 100 µM | NCI/ADR-RES > 100 µM
> 100 µM: HCT-15

Cn1c(=O)c2[nH]c(Nc3cccc(Cl)c3)nc2n(C)c1=O
4.99 µM: HCT-15
inactive: SF-268 6.98 µM | TK-10 8.91 µM | HCC 2998 4.27 µM | MDA-MB-231 7.48 µM | RPMI-8226 2.49 µM | SW-620 5.78 µM | K562 5.4 µM | HT-29 3.99 µM | IGROV-1 3.8 µM | A549 5.6 µM | SF-295 4.84 µM | MCF7 3.79 µM | SK-MEL-5 4.28 µM | HOP-62 4.67 µM

C=C1C(=O)OC2C3C(=C)[C@@H](OC(C)=O)CC3C(C)=CC(OC(=O)C(C)(O)C(C)OC(C)=O)[C@@H]12 (stereo not given in full)
inactive: ACHN 10.4 µM | SF-268 19.5 µM | TK-10 3.99 µM | HCC 2998 16.1 µM | MDA-MB-231 19.8 µM | RPMI-8226 7.18 µM | SW-620 2.88 µM | SNB-19 85.5 µM | K562 3.35 µM | HT-29 5.09 µM | IGROV-1 7.36 µM | A549 26.2 µM | SF-295 48.2 µM | MCF7 10.7 µM | SK-MEL-5 7.4 µM | HOP-62 21.3 µM
10.4 µM: HCT-15

O=C1c2ccccc2-c2nc(-c3cccc([N+](=O)[O-])c3)nnc21
15.7 µM: HCT-15
inactive: ACHN 3.98 µM | SF-268 43.1 µM | TK-10 18.7 µM | MDA-MB-231 16.6 µM | RPMI-8226 2.94 µM | SW-620 15.8 µM | SNB-19 13.9 µM | K562 5.94 µM | HT-29 1.82 µM | IGROV-1 28.8 µM | A549 4.62 µM | SF-295 1.56 µM | MCF7 11.4 µM | SK-MEL-5 2.69 µM | NCI/ADR-RES 13.4 µM

O=C(CCc1cccc(O)c1)NCCc1ccc(O)cc1
> 100 µM: HCT-15
inactive: ACHN 95.9 µM | SF-268 > 100 µM | TK-10 > 100 µM | MDA-MB-231 > 100 µM | SNB-19 > 100 µM | K562 > 100 µM | HT-29 > 100 µM | IGROV-1 > 100 µM | A549 > 100 µM | SF-295 > 100 µM | MCF7 > 100 µM | SK-MEL-5 > 100 µM | HOP-62 > 100 µM | NCI/ADR-RES > 100 µM

O=C1NC(Cc2c[nH]c3ccccc23)C(=O)N2C(C3CCCCC3)c3[nH]c4ccccc4c3C[C@@H]12 (stereo not given in full)
inactive: ACHN 17.7 µM | SF-268 13.1 µM | TK-10 8.15 µM | MDA-MB-231 15.1 µM | RPMI-8226 9.02 µM | SW-620 15.7 µM | SNB-19 22.3 µM | K562 10.8 µM | HT-29 14.9 µM | IGROV-1 13.8 µM | A549 10.9 µM | SF-295 24 µM | MCF7 9.08 µM | SK-MEL-5 12.8 µM | HOP-62 18.2 µM | NCI/ADR-RES 11.7 µM
12.4 µM: HCT-15
